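Five compound concentrations were applied to cells in 96-well plates for 48 hours; endpoints were derived by simple linear interpolation of the resulting dose-response curve. GI50 = concentration required for 50% inhibition of growth.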 Active and inactive are the calls of the source. Rule as the data show it: active = GI50 up to about 1.1 µM and inactive = higher.
Experiments:
Test in all cases: NCI anticancer screen, dose series, 48 h
A498 = test system: A498
A549 = test system: A549
ACHN = test system: ACHN
CAKI-1 = test system: CAKI-1
CCRF-CEM = test system: CCRF-CEM
COLO 205 = test system: COLO 205
DU-145 = test system: DU-145
EKVX = test system: EKVX
HCC 2998 = test system: HCC 2998
HCT-15 = test system: HCT-15
HL-60 = test system: HL-60
HOP-62 = test system: HOP-62
HOP-92 = test system: HOP-92
HT-29 = test system: HT-29
IGROV-1 = test system: IGROV-1
K562 = test system: K562
KM12 = test system: KM12
LOX IMVI = test system: LOX IMVI
M14 = test system: M14
MCF7 = test system: MCF7
MDA-MB-231 = test system: MDA-MB-231
MDA-MB-435 = test system: MDA-MB-435
MDA-N = test system: MDA-N
MOLT-4 = test system: MOLT-4
Malme-3M = test system: Malme-3M
NCI-H23 = test system: NCI-H23
NCI-H460 = test system: NCI-H460
NCI/ADR-RES = test system: NCI/ADR-RES
OVCAR-3 = test system: OVCAR-3
OVCAR-4 = test system: OVCAR-4
OVCAR-5 = test system: OVCAR-5
OVCAR-8 = test system: OVCAR-8
PC-3 = test system: PC-3
RPMI-8226 = test system: RPMI-8226
RXF 393 = test system: RXF 393
SF-295 = test system: SF-295
SF-539 = test system: SF-539
SK-MEL-28 = test system: SK-MEL-28
SK-MEL-2 = test system: SK-MEL-2
SK-MEL-5 = test system: SK-MEL-5
SK-OV-3 = test system: SK-OV-3
SNB-19 = test system: SNB-19
SNB-75 = test system: SNB-75
SR = test system: SR
SW-620 = test system: SW-620
T47D = test system: T47D
TK-10 = test system: TK-10
U-251 = test system: U-251
UACC-257 = test system: UACC-257
UACC-62 = test system: UACC-62
UO-31 = test system: UO-31
786-0 = test system: 786-0
HCT-116 = test system: HCT-116
NCI-H522 = test system: NCI-H522
SF-268 = test system: SF-268
SN12C = test system: SN12C

How did the GI50 (A498) turn out when `CCOC(=O)c1csc(NC(=O)C(C)N2CCOCC2)n1` (centres undefined) was run?
Its GI50 is > 100 µM (inactive).

And the GI50 (A549)?
The GI50 was > 100 µM (inactive).

And the GI50 (ACHN)?
Its GI50 is > 100 µM (inactive).

What about the GI50 (CAKI-1) of the same compound?
The GI50 was > 100 µM (inactive).

And the GI50 (CCRF-CEM)?
Its GI50 is > 100 µM (inactive).

And the GI50 (COLO 205)?
Its GI50 is > 100 µM (inactive).

What about the GI50 (DU-145) of the same compound?
Its GI50 is > 100 µM (inactive).

And the GI50 (EKVX)?
Its GI50 is > 100 µM (inactive).

And the GI50 (HCC 2998)?
Its GI50 is > 100 µM (inactive).

And the GI50 (HCT-15)?
The GI50 was greater than 100 µM.

What about the GI50 (HL-60) of the same compound?
Its GI50 is > 100 µM (inactive).

And the GI50 (HOP-62)?
The GI50 was > 100 µM (inactive).

And the GI50 (HOP-92)?
The GI50 was > 100 µM (inactive).

And the GI50 (HT-29)?
Its GI50 is > 100 µM (inactive).

And the GI50 (IGROV-1)?
Its GI50 is > 100 µM (inactive).

And the GI50 (K562)?
The GI50 was > 100 µM (inactive).

What about the GI50 (KM12) of the same compound?
The GI50 was > 100 µM (inactive).

And the GI50 (LOX IMVI)?
Its GI50 is > 100 µM (inactive).

What about the GI50 (M14) of the same compound?
The GI50 was > 100 µM (inactive).

What about the GI50 (MCF7) of the same compound?
Its GI50 is > 100 µM (inactive).

What about the GI50 (MDA-MB-231) of the same compound?
The GI50 was > 100 µM (inactive).

And the GI50 (MDA-MB-435)?
The GI50 was > 100 µM (inactive).

And the GI50 (MDA-N)?
The GI50 was > 100 µM (inactive).

And the GI50 (MOLT-4)?
The GI50 was > 100 µM (inactive).

And the GI50 (Malme-3M)?
The GI50 was > 100 µM (inactive).

What about the GI50 (NCI-H23) of the same compound?
The GI50 was > 100 µM (inactive).

What about the GI50 (NCI-H460) of the same compound?
Its GI50 is > 100 µM (inactive).

What about the GI50 (NCI/ADR-RES) of the same compound?
The GI50 was > 100 µM (inactive).

What about the GI50 (OVCAR-3) of the same compound?
The GI50 was > 100 µM (inactive).

And the GI50 (OVCAR-4)?
The GI50 was > 100 µM (inactive).

What about the GI50 (OVCAR-5) of the same compound?
Its GI50 is > 100 µM (inactive).

And the GI50 (OVCAR-8)?
The GI50 was > 100 µM (inactive).

What about the GI50 (PC-3) of the same compound?
Its GI50 is > 100 µM (inactive).

What about the GI50 (RPMI-8226) of the same compound?
The GI50 was > 100 µM (inactive).

What about the GI50 (RXF 393) of the same compound?
Its GI50 is > 100 µM (inactive).

And the GI50 (SF-295)?
Its GI50 is > 100 µM (inactive).

What about the GI50 (SF-539) of the same compound?
Its GI50 is > 100 µM (inactive).

What about the GI50 (SK-MEL-28) of the same compound?
Its GI50 is > 100 µM (inactive).

And the GI50 (SK-MEL-2)?
Its GI50 is > 100 µM (inactive).

And the GI50 (SK-MEL-5)?
Its GI50 is > 100 µM (inactive).

And the GI50 (SK-OV-3)?
Its GI50 is > 100 µM (inactive).

What about the GI50 (SNB-19) of the same compound?
The GI50 was > 100 µM (inactive).

And the GI50 (SNB-75)?
The GI50 was > 100 µM (inactive).

What about the GI50 (SR) of the same compound?
The GI50 was > 100 µM (inactive).

And the GI50 (SW-620)?
The GI50 was > 100 µM (inactive).

And the GI50 (T47D)?
Its GI50 is > 100 µM (inactive).

What about the GI50 (TK-10) of the same compound?
The GI50 was > 100 µM (inactive).

What about the GI50 (U-251) of the same compound?
The GI50 was > 100 µM (inactive).

And the GI50 (UACC-257)?
The GI50 was > 100 µM (inactive).

And the GI50 (UACC-62)?
The GI50 was > 100 µM (inactive).

And the GI50 (UO-31)?
Its GI50 is > 100 µM (inactive).

Which results are given for `N=C(N)NS(=O)(=O)c1ccc(NNc2c3ccccc3nc3c(C(=O)Nc4ccc(S(=O)(=O)Nc5ncccn5)cc4)cccc23)cc1`?
GI50 (786-0): 31.6 µM (inactive); GI50 (A498): > 100 µM (inactive); GI50 (A549): 47.8 µM (inactive); GI50 (ACHN): 31 µM (inactive); GI50 (CAKI-1): 37.8 µM (inactive); GI50 (CCRF-CEM): 30.8 µM (inactive); GI50 (COLO 205): 40.5 µM (inactive); GI50 (DU-145): 60.1 µM (inactive); GI50 (EKVX): 31.8 µM (inactive); GI50 (HCC 2998): 50.8 µM (inactive); GI50 (HCT-116): 28.4 µM (inactive); GI50 (HCT-15): 34.1 µM; GI50 (HL-60): 38.2 µM (inactive); GI50 (HOP-62): 45.3 µM (inactive); GI50 (HOP-92): 67 µM (inactive); GI50 (HT-29): 22.9 µM (inactive); GI50 (IGROV-1): 18.2 µM (inactive); GI50 (K562): 27.2 µM (inactive); GI50 (KM12): 30.6 µM (inactive); GI50 (M14): 20.4 µM (inactive); GI50 (MCF7): 31.5 µM (inactive); GI50 (MDA-MB-231): 60.1 µM (inactive); GI50 (MDA-MB-435): 43.2 µM (inactive); GI50 (MDA-N): 49.7 µM (inactive); GI50 (MOLT-4): 38.9 µM (inactive); GI50 (Malme-3M): 22.1 µM (inactive); GI50 (NCI-H23): 35.3 µM (inactive); GI50 (NCI-H460): 45.3 µM (inactive); GI50 (NCI-H522): 19.3 µM (inactive); GI50 (NCI/ADR-RES): > 100 µM (inactive); GI50 (OVCAR-3): 38.4 µM (inactive); GI50 (OVCAR-4): 29.2 µM (inactive); GI50 (OVCAR-5): 74.8 µM (inactive); GI50 (OVCAR-8): 29.4 µM (inactive); GI50 (PC-3): 33.7 µM (inactive); GI50 (RPMI-8226): 33.3 µM (inactive); GI50 (RXF 393): 29 µM (inactive); GI50 (SF-268): 47.2 µM (inactive); GI50 (SF-295): 40.2 µM (inactive); GI50 (SF-539): 35.4 µM (inactive); GI50 (SK-MEL-28): 55.1 µM (inactive); GI50 (SK-MEL-2): 50.4 µM (inactive); GI50 (SK-MEL-5): 26.6 µM (inactive); GI50 (SN12C): 42.2 µM (inactive); GI50 (SNB-19): 50.1 µM (inactive); GI50 (SNB-75): > 100 µM (inactive); GI50 (SR): > 10 µM (inactive); GI50 (SW-620): 37.5 µM (inactive); GI50 (T47D): 39 µM (inactive); GI50 (U-251): 43.7 µM (inactive); GI50 (UACC-257): 66.7 µM (inactive); GI50 (UACC-62): 21.2 µM (inactive); GI50 (UO-31): 22.4 µM (inactive)

Reference: ChEMBL document CHEMBL1201862, “PubChem BioAssay data set” (2004)
